Data reported in US10695406B2, “Modulation of cellular stress using a B-cell oxidative and/or endoplasmic reticulum stress inhibitor and a targeting agent” (THE UNIVERSITY OF QUEENSLAND, priority 2014, dated 2020).

Tests used:
[1] = system: mice with high fat diet-induced obesity (HFDIO); assay: HFDIO Experiment 2: 22 weeks of diet, IL-22 for the last 30 days; format: in vivo, C57BL/6 male mice; conditions: for Body weight (% original) / Fasting blood glucose / Fasting serum insulin concentration / Fasting serum proinsulin concentration: HFDIO Experiment 2, 22 weeks on HFD
Excerpt: All mice were housed in sterilized, filter-topped cages in a conventional clean facility. Six to eight week old C57BL/6 male mice were fed ad libitum on a high fat diet containing 46% of available energy as saturated fat, 34% carbohydrate, 20% protein (Speciality feeds, SF04-027). Or on normal chow containing less than 10% saturated fat (GOLDMIX, 126575). Cages of mice were randomly allocated to the experimental groups by random draw. Investigators were not blinded to treatment by there were no subjective assessments made.
Total insulin and proinsulin were measured in supernatant from islet cultures or in serum from mice using commercially obtained ELISA kits from MILLIPORE and MERCODIA, respectively. The molar insulin concentration was determined by subtracting the molar proinsulin concentration from molar total insulin, and then the serum proinsulin:insulin ratio was calculated.
From 18-22 weeks of diet, mice were treated (for 30 days) with 20 or 100 ng/g i.p. recombinant murine IL-22 twice weekly (R&D SYSTEMS) or 0.1 mg/mouse irrelevant isotype control antibody, sacrificed and sampled.
Fasted i.p. glucose tolerance tests (2 g/kg glucose) and insulin tolerance tests (0.25 U/kg insulin; Humalog, Lilly) were performed at the times indicated in the Figure Legends. […]

[2] = Clearance of IL-22 and IL-22 fusion proteins from serum; format: in vivo, C57BL/6 mice; conditions: after administration to mice
Method: Targeting to IL-22 to pancreas: Non-obese male C57BL/6 at 6-8 weeks of age. Each IL-22-GLP-1R ligand fusion protein or hIL-22 was administered i.p. at 256 ng/g of IL-22 and the molar equivalents for the individual fusion proteins (n=3 per regimen). IL-22-ScaB1 was administered at […]. Control mice received a PBS control i.p. injection only.
Serum concentrations of IL-22 and the IL-22-GLP-1R ligand fusion proteins were determined using a human IL-22 double-determinant ELISA (Biolegend; 434505) against a standard curve for the individual fusion proteins.

MIN6N8 cells = assay: ROS and NO (DHE, DCFDA, Griess assay) in MIN6N8 cells; format: cell-based, murine; conditions: for IL-23 induced oxidation of dihydroethidium (DHE): 50 ng/mL
Method: Activation of ATF6 was assessed as follows: the area in pixels per square millimeter co-stained ATF6 and DAPI (blue and green), and total ATF6 staining (green) was determined in 5 fields of view for each section (n=6 for each condition) using IMAGEJ software version 1.45s. Data are presented as the percentage of ATF6 and DAPI co-fluorescence to the total ATF6 fluorescence. Phosphorylation of Ser-51 of eiF2 α was determined by an AlphaScreen assay as per the manufacturer's instructions (PERKIN-ELMER). The Griess reagent method was performed according to the manufacturer's instructions (MOLECULAR PROBES) to assess the intracellular levels of nitric oxide. 5-(and -6-)-carboxy-2,7-dichlorofluorescein diacetate (DCFDA) assay was used to determine the intracellular levels of H2O2 as previously described (Sakon et al., 2003). Cells were treated with glucose or recombinant cytokines at the concentrations indicated in the figure legends, or with 5 μM thapsigargin (SIGMA-ALDRICH) or 10 μg/mL tunicamycin (SIGMA-ALDRICH) or 0.1-0.5 mM Palmitate (SIGMA-ALDRICH) for the times indicated in the legends. ROS was […] using the dihydroethidium (DHE) fluorescent cell-permeable probe (SIGMA-ALDRICH). MIN6N8 cells plated at 2×10^6/mL were incubated with 3 μM DHE and subsequently treated with DMSO (control), 50 ng/mL IL-23 for 30 minutes±[…] IL-22 at the same time or 30 minutes prior to IL-23.
To determine whether IL-22 was sufficient to prevent the increase in oxidative stress caused by known stressors, for example dihydroethidium (DHE), MIN6N8 cells were exposed to 50 ng/mL IL-23 for 30 minutes±50 ng/mL IL-22 at the same time, or 30 minutes prior to the IL-23 treatment. Superoxide generation was measured using DHE, which fluoresces red and binds DNA after oxidation. Time-lapse imaging (3 frames/min for 30 minutes) was utilized to determine the formation of superoxide (DHE-conversion/fluorescence) in cells after treatment. DAPI fluorescence was captured to visualize nuclei.
The concentration of ROS and NO in MIN6N8 cells treated with 16.6 mM glucose (high glucose), 10 μM H2O2, 0.5 mM palmitic acid or 50 ng/mL cytokines±50 ng/mL IL-22 either at the same time, or 30 minutes prior to the stressor treatment.

Human LS174T cells = assay: Oxidative stress (nitrite, Griess assay) in LS174T cells with 0.5 mM palmitate; format: cell-based; conditions: human LS174T cells, 0.5 mM palmitate
Method: (§1) Cell culture: Murine MIN6N8 cells were tested negative for mycoplasma. Cells were routinely cultured in phenol-red free DMEM (Life Technologies) containing 25 mM glucose (3.4 g/L sodium bicarbonate, 50 U/mL penicillin and streptomycin, 71.5 μM β-mercaptoethanol and 10% heat inactivated fetal bovine serum) and transferred to DMEM as above with 5.5 mM glucose 48 h prior to experimentation. Human LS174T cells were cultured in DMEM containing 10% heat-inactivated fetal bovine serum, 50 U mL^−1 penicillin and streptomycin.
The Griess Reagent Kit for Nitrite Determination was performed according to the manufacturer's instructions (Molecular Probes) to assess the intracellular levels of nitrite (the stable metabolite of nitric oxide) using lysates of β-cells prepared in RIPA buffer (150 mM NaCl, 1% NP40, 0.5% sodium deoxycholate, 0.1% SDS, 50 mM Tris, pH 7.5).

Murine MIN6N8 cells = assay: ERAI-sXBP1 reporter ER stress in MIN6N8 cells with 0.5 mM palmitate; format: cell-based; conditions: 15.4 nM, 24 hours, no palmitate
Method: as §1
ER Stress Measurement: MIN6N8 cells were transfected with the ERAI reporter plasmid (F-XBP1ΔDBD-venus, using Lipofectamine 2000 according to the manufacturer's instructions. For ERAI there was negligible fluorescence in the absence of ER stressors, but upon induction of ER stress, splicing of XBP1 mRNA by IRE1a results in the translation of Venus but not an active form of XBP1. Fluorescence was measured (excitation: 485 nm; emission: 520 nm) using a POLARstar Omega plate reader and cells were treated 48 h after transfection. […] After 24 h, ERAI-sXBP1 GFP reporter fluorescence was measured.

Substance: IL-22: interleukin-22; recombinant murine IL-22 (R&D SYSTEMS) in the mouse experiments
- decrease of serum proinsulin ([1]; 100 ng/g): 97%
- islet ER stress (Xbp1 splicing) ([1]; 100 ng/g): Xbp1 splicing indistinguishable from normal chow islets
- body weight during treatment ([1]; 20 or 100 ng/g, last 30 days of 22-week HFD): progressively decreased
- Body weight (% original) ([1]; 20 ng/g): 188 ± 13 % original
- Fasting blood glucose ([1]; 20 ng/g): 11.3 ± 0.5 mmol/L
- Fasting serum insulin concentration ([1]; 20 ng/g): 0.7 ± 0.4 ng/mL
- Fasting serum proinsulin concentration ([1]; 20 ng/g): 14.1 ± 2.9 pmol/L
- Body weight (% original) ([1]; 100 ng/g): 189 ± 17 % original
- Fasting blood glucose ([1]; 100 ng/g): 10.6 ± 1.3 mmol/L
- Fasting serum insulin concentration ([1]; 100 ng/g): 0.5 ± 0.3 ng/mL
- Fasting serum proinsulin concentration ([1]; 100 ng/g): 4.7 ± 1.8 pmol/L
- time until random fed blood glucose decreased to levels of normal chow fed mice ([1]; both doses (20 and 100 ng/g)): ≤ 7 days
- insulin resistance in ITT ([1]; day 16 of therapy): no or modest improvement in insulin resistance
- serum total insulin during IPGTT ([1]; day 25): complete suppression of fasting hyperinsulinemia and normalization of GSIS
- glycemic control in IPGTT ([1]; day 25 of therapy): glycemic control indistinguishable from control non-obese mice
- insulin resistance in ITT ([1]; day 29, both doses): insulin resistance had decreased
- serum proinsulin:insulin ratio ([1]; end of treatment): normalization of the serum proinsulin:insulin ratio
- proinsulin secretion by islets ex vivo ([1]; islets from HFD mice treated in vivo, glucose/GLP-1): reduced in a dose-dependent manner
- islet expression of anti-oxidant genes and Nos2 ([1]; islets from HFDIO mice treated in vivo): further increased expression of anti-oxidant genes and suppressed Nos2
- insulin secretion in response to glucose by islets ex vivo ([1]; islets from obese mice treated for 30 days): correction of insulin hyper-secretion in response to glucose
- pathology in skin, intestine or liver ([1]; up to 100 μg/kg for up to 30 days): no pathology was observed in the skin, intestine or liver
- time to almost complete clearance from serum [2]: ≤ 60 min
- IL-23 induced oxidation of dihydroethidium (DHE) (MIN6N8 cells; 30-minute pre-exposure): completely prevented DHE oxidation
- IL-23 induced oxidation of dihydroethidium (DHE) (MIN6N8 cells; concomitant exposure): reduced the degree of oxidation and the number of cells affected
- basal NO production (MIN6N8 cells; unstressed cells): decreased basal NO production
- production/accumulation of ROS and NO (MIN6N8 cells; β-cells exposed to inflammatory cytokines, FFA, tunicamycin or H2O2): represses the production/accumulation of ROS and NO
- fold higher concentrations required for the same effect as human recombinant IL-22 in suppressing oxidative stress (nitrite) (Human LS174T cells): ~64 fold
- ER stress caused by the protein alone (Murine MIN6N8 cells): did not cause ER stress
